Data set [1] deals with Interleukin-8 (IL-8) release from human endothelial cells. In words: Inhibition of interleukin-8 (IL-8) release from human endothelial cells (HUVEC), IL-1β induced, ELISA. It counts as cell-based. The conditions noted are these: IL-1β 10 ng/ml, 6 h, IL-8 by ELISA, read-out: IC50 (50% inhibition of IL-8 release relative to the maximum effect). An excerpt:
1.a) Inhibition of Interleukin-8 (IL-8) Release from Human Endothelial Cells
The expression of the human IL-8 gene is controlled by a diversity of regulatory and enhancer elements which are located above the promoter region of the gene. These elements comprise binding sites for transcription factors, and efficient transcription of the IL-8 gene is possible only through the interaction thereof with their DNA binding sites. The activity of the corresponding transcription factors can be induced by various stimuli (e.g. interleukin-1β, tumor necrosis factor-α) and can be modulated by various signal transduction pathways [H. Holtmann et al., Mol. Cell. Biol. 19, 6742-6753 (1999)].
For maximum expression of IL-8, the activity of two different transcription factors is essential: NF-κB and AP-1 [Y.-H. Chang et al., Exp. Cell Res. 278, 166-174 (2000)]. Cytokine-induced IL-8 synthesis can therefore be employed as test system for identifying and characterizing test substances which inhibit directly or indirectly the binding of NF-κB and AP-1 to their DNA binding sites.
Human umbilical cord endothelial cells (HUVEC) were purchased from CellSystems (St. Katharinen, Germany) and cultured in accordance with the supplier's recommendation in EGM-2 medium including growth additions (CellSystems, St. Katharinen, Germany) in 165 cm^2 tissue culture bottles. After the cell lawn has reached 60-80% confluence, the cells are detached from the base of the bottle by trypsin treatment, mechanically dissociated and seeded in a cell density of 5000 cells/well in 96-well microtiter plates (Corning, Wiesbaden, Germany). After 3 days, the culture medium is completely replaced by 170 μl of fresh medium per well. The cells are employed for the experiments on the following day.
To determine the inhibitory effect of the substances according to the invention on IL-8 release, they are firstly dissolved in a concentration ten times higher than the desired final concentration in the test in medium which comprises 1% DMSO. Subsequently, 20 μl of the substance solution are added per well. The formation and release of IL-8 is then induced by adding interleukin-1β (IL-1β, final concentration 10 ng/ml; Biosource GmbH, Solingen, Germany), and the cells are incubated in a CO2 incubator at 37° C. for 6 h. Thereafter, 150 μl of the cell supernatant are removed and frozen at −20° C. until the IL-8 content is measured by ELISA (Biosource GmbH, Solingen, Germany). To carry out the ELISA, the samples are thawed and are diluted 1:10, and the test is carried out in accordance with the manufacturer's instructions. The inhibitory effect of the compounds according to the invention on IL-8 release is ascertained by comparison with vehicle-treated cells.
A general note: ELISA stands for enzyme-linked immunosorbent assay.

Data set [2] can be described thus: Metabolic stability: in vitro incubation with liver microsomes. It is filed as in vitro ADME. The conditions noted are these: Mouse liver microsomes; for CL: calculated from half-life in the incubation mixture; for Fmax: maximum bioavailability calculated from half-life in the incubation mixture. On the procedure:
In Vitro Incubation with Liver Microsomes:
The hepatic microsomal stability is determined by incubating the substances according to the invention with liver microsomes from various species. The incubation concentration of the substances is kept as low as possible (preferably <1 μM), as is the concentration of the microsomal proteins in the test mixture (preferably 0.2 mg of microsomal protein per ml of incubation mixture). This procedure makes it possible to operate in the linear region of the Michaelis-Menten kinetics for most compounds. A sample is taken from the incubation mixture at various times (seven times in total) to determine the remaining substance concentration. The clearance (CL) and the maximum bioavailability (Fmax) of the test substance is calculated for the respective species from the half-life of the substance in the incubation mixture.
The experiments are carried out as described in detail in J. B. Houston and D. J. Carlile [Drug Metab. Rev. 29, 891-922 (1997)].

Data set [3] has as its system H460 cells. In words: In vitro proliferation of tumor cells (CellTiter-Glo). It is filed as cell-based. The conditions noted are these: NCI-H460; H460 human lung carcinoma cells, 24 h after addition of substance. The source says:
Various types of cancer are characterized by uncontrolled, excessive proliferation of various cell types, leading to the development of metastases and tumors. The possible use of the substances according to the invention for the treatment of hyperproliferative disorders can be investigated by their activity on the cell division rate of tumor cells in vitro. The indicator between antiproliferative effect in vitro and clinical antitumor effect is well established. The therapeutic utilizability of, for example, Taxol [Silvestrini et al., Stem Cells 11, 528-535 (1993)], Taxotere [Bissery et al., Anti Cancer Drugs 6, 339 (1995)] or topoisomerase inhibitors [Edelman et al., Cancer Chemother.
The tumor cell lines such as, for example, MDA-MB-231 cells (human breast adenocarcinoma cells), H460 cells (human lung carcinoma cells) or HCT-15 cells (human colon adenocarcinoma cells) are expanded in appropriate growth media (Sigma, Taufkirchen, Germany) recommended by the supplier (e.g. LGC Promochem, Wesel, Germany). One day before adding the compounds according to the invention, the cells are distributed in a density of 3000 cells/well in 100 μl of growth medium on black 96-well microtiter plates with clear base. On the day of addition of test substance, one microtiter plate for each tumor cell line is used to determine the initial cell count present in the wells. The substances according to the invention, diluted in growth medium and DMSO, are added to the related plates. The test substances are usually added in various concentrations starting with 10 μM final concentration in the assay. The DMSO concentration in the assay is 0.1%. Twenty-four hours after addition of the substance, the cell counts in each well are determined using the CellTiter-Glo® Luminescent Cell Viability-Tests (Promega GmbH, Mannheim, Germany). The test is carried out in accordance with the manufacturer's instructions and evaluated using a luminometer. To ascertain the antiproliferative activity of the compounds according to the invention, the cell counts determined before addition of substance in related plates are subtracted, and the percentage difference of the changes in the cell counts between substance-treated and vehicle-treated cells is determined. The relative activity of the different test substances is determined by a comparison of the concentrations which bring about 50% of their maximum effect (IC50).
Background: In ATP-based viability assays light output follows the ATP content of the culture.

Where only a bound is given, the exact number is not on record here.

The values below come from patent publication US8030347B2, “Cylopenta[b]benzofuran derivatives and the utilization thereof” (Bayer HealthCare AG, priority 2004, dated 2011).

In general, IC50 refers to the concentration needed to halve the response being measured. As for `CCOc1cc(OCC)c2c(c1)O[C@@]1(c3ccc(Cl)cc3)[C@H](c3ccccc3)C[C@@H](N)[C@@]21O` (racemic) [Example 15, (1R*,3S*,3aR*,8bS*)-1-Amino-3a-(4-chlorophenyl)-6,8-diethoxy-8b-hydroxy-3-phenyl-2,3,3a,8b-tetrahydrocyclopenta[b]benzofuran], in data set [1], the IC50 is 0.166 µM. In data set [2], the CL was below 2.7 L/h/kg and the Fmax is reported as above 50%.
As to `CN(C)CCOc1ccc2c(c1)O[C@@]1(c3ccc(Cl)cc3)[C@H](c3ccccc3)C[C@H](O)[C@@]21O` (racemic) [Example 32, (1S*,3S*,3aR*,8bS*)-3a-(4-Chlorophenyl)-6-(2-dimethylaminoethoxy)-3-phenyl-2,3,3a,8b-tetrahydrocyclopenta[b]benzofuran-1,8b-(1H)-diol], in data set [1], the IC50 was determined as 0.112 µM. In addition, in data set [2], the CL is below 2.7 L/h/kg and the Fmax is recorded as above 50%. In addition, the IC50 in data set [3] stood at 0.0005 µM.
Take `O[C@H]1C[C@@H](c2ccccc2)[C@]2(c3ccc(Cl)cc3)Oc3cccc(OCCN4CCCC4)c3[C@]12O` (racemic) [Example 48, (1S*,3S*,3aR*,8bS*)-3a-(4-Chlorophenyl)-3-phenyl-8-(2-pyrrolidin-1-ylethoxy)-2,3,3a,8b-tetrahydrocyclopenta[b]benzofuran-1,8b-(1H)-diol]: the 50% inhibitory concentration (IC50) worked out at 0.214 µM in data set [1] and 0.0479 µM in data set [3]. In data set [2], the CL is below 2.7 L/h/kg. For the same molecule, the Fmax in data set [2] is reported as above 50%.
Consider `CCOc1cc(OCC)c2c(c1)O[C@@]1(c3ccc(-c4ccsc4)cc3)[C@H](c3ccccc3)C[C@@H](O)[C@@]21O` (relative stereo) [Example 3, (1R*,3S*,3aR*,8bS*)-6,8-Diethoxy-3-phenyl-2,3,3a,8b-tetrahydro-3a-(4-thiophen-3-ylphenyl)-cyclopenta[b]benzofuran-1,8b-(1H)-diol], for which, in data set [1], the concentration for half-maximal inhibition (IC50) turned out to be 0.17 µM. Further, in data set [2], the CL is below 2.7 L/h/kg and the Fmax is above 50%.
As for `CCOc1cc(OCC)c2c(c1)O[C@@]1(c3ccc(Br)cc3)[C@H](c3ccccc3)[C@@H](C(=O)N(C)C)C(=O)[C@@]21O` (relative stereo) [Example 12, (2R*,3S*,3aR*,8bR*)-3a-(4-Bromophenyl)-6,8-diethoxy-2-dimethylcarbamid-8b-hydroxy-3-phenyl-2,3,3a,8b-tetrahydrocyclopenta[b]benzofuran-1-one], the IC50 in data set [1] stood at 0.466 µM. In data set [2], the CL is 2.97 L/h/kg and the Fmax is reported as 45.1%.
On to `COCCOc1cc(OCCOC)c2c(c1)O[C@@]1(c3ccc(Br)cc3)[C@H](c3ccccc3)C[C@@H](O)[C@@]21O` (relative stereo) [Example 18, (1R*,3S*,3aR*,8bS*)-6,8-Bis(2-methoxyethoxy)-3a-(4-bromophenyl)-3-phenyl-2,3,3a,8b-tetrahydrocyclopenta[b]benzofuran-1,8b-(1H)-diol], for which, in data set [1], the half-inhibitory concentration (IC50) amounted to 0.02 µM. In data set [2], the CL was below 2.7 L/h/kg and the Fmax was above 50%.
`CN(C)CCOc1cc(OCCN(C)C)c2c(c1)O[C@@]1(c3ccc(Cl)cc3)[C@H](c3ccccc3)C[C@@H](O)[C@@]21O` (relative stereo) [Example 21, (1R*,3S*,3aR*,8bS*)-6,8-Bis(2-dimethylaminoethoxy)-3a-(4-chlorophenyl)-3-phenyl-2,3,3a,8b-tetrahydrocyclopenta[b]benzofuran-1,8b-(1H)-diol]: the half-inhibitory concentration (IC50) in data set [3] worked out at 0.0015 µM.
In the case of `CN(C)CCOc1cc(OCCN(C)C)c2c(c1)O[C@@]1(c3ccc(Br)cc3)[C@H](c3ccccc3)C[C@H](O)[C@@]21O` (relative stereo) [Example 22, (1S*,3S*,3aR*,8bS*)-6,8-Bis(2-dimethylaminoethoxy)-3a-(4-bromophenyl)-3-phenyl-2,3,3a,8b-tetrahydrocyclopenta[b]benzofuran-1,8b-(1H)-diol], in data set [1], the IC50 came to 0.09 µM. Moreover, in data set [2], the CL is below 2.7 L/h/kg and the Fmax is above 50%.
`CCOc1ccc2c(c1)O[C@@]1(c3ccc(Cl)cc3)[C@H](c3ccccc3)C[C@H](O)[C@@]21O` (relative stereo) [Example 23, (1S*,3S*,3aR*,8bS*)-3a-(4-Chlorophenyl)-6-ethoxy-3-phenyl-2,3,3a,8b-tetrahydrocyclopenta[b]-benzofuran-1,8b-(1H)-diol]: the IC50 in data set [1] stood at 0.202 µM; in data set [3], 0.0997 µM.
Consider `CN(C)CCOc1cccc2c1[C@]1(O)[C@@H](O)C[C@@H](c3ccccc3)[C@]1(c1ccc(Cl)cc1)O2` (relative stereo) [Example 49, (1S*,3S*,3aR*,8bS*)-3a-(4-Chlorophenyl)-8-(2-dimethylaminoethoxy)-3-phenyl-2,3,3a,8b-tetrahydrocyclopenta[b]benzofuran-1,8b-(1H)-diol], for which the IC50 in data set [3] came out at 0.0297 µM.
